Columns and labels:
[1] = test system: TET2^MT cells; test: In vitro toxicity to TET2^MT cells; format: cell-based
[2] = test system: α-KG-dependent histone dioxygenases (H3K4 methylation); test: Histone H3K4 methylation in treated cells; format: cell-based

Compound | LD50 for TET2^MT [1] | Change in H3K4 methylation [2]
O=C(O)CCC(O)C(=O)O (centres unmarked) [2HG, 2-hydroxyglutarate] | in millimolar ranges | 
COC(=O)CNC(=O)C(=O)OC [DMOG, methyl 2-[(2-methoxy-2-oxoethyl)amino]-2-oxoacetate] |  | significantly affected
